Tested on: AMF infections of western wheatgrass (Pascopyron smithii) roots
Test: Field plot study: AM fungal infection of western wheatgrass roots
Assay type: in vivo
Details: for AM Infection t = 0 days / AM Infection t = 47 days / AM Infection t = 97 days: western wheatgrass roots, field plots, mean n = 3; for AM Infection t = 0 days: first sampling; for AM Infection t = 97 days: third sampling
Text: Twelve plots of size 50 cm by 50 cm were established on a homogenous site 2.54 meters (running northeast and southwest) by 4.06 meters (running southeast and northwest). Plant distribution was mostly homogeneous across the entire site, with western wheatgrass dominant. The plots were in four rows with three plots in each row. Within a row plots were 25 cm apart. Rows were 50 cm apart. An experimental unit was one plot. Treatments were replicated three times. Treatments included: controls (no treatment), potassium chloride treatment, potassium phosphate treatment, and potassium phosphite treatment. (See, FIG. 2).
Treatments: All plots received the same amount of solution. The control plots were treated with distilled water only (6.375 L). The KCl plots treated with distilled water containing the same amount of K as was needed to convert the phosphorous acid (H3PO3) to dipotassium phosphite (K2HPO3). The phosphate plots were treated with sufficient dipotassium phosphate (K2HPO4) to deliver 3 g of P per plot dissolved in the same amount of distilled water as the control plots received and the KCl plots received. The phosphite plots were treated with sufficient dipotassium phosphite (K2HPO3) to deliver 3 g of P per plot dissolved in the same amount of distilled water as the control plots received, the KCl plots received and the phosphate plots received.
The field experiment reported in this example was conducted during June through October. Plots were established during early June and treated on the 15th and 16th day (as in Example 3 above). […] Sample size and depth was as detailed above in Example 3.
Analyses of infections were performed by examining roots of wheatgrass (Pascopyron smithii). This plant was the dominant plant in all of the plots and is known to be commonly infected with AM fungi. (See, Loree M. A. J. and Williams S. E., New Phytologist, 106:735-744, 1987; and Wang B. and Qui Y.-L. 2006, Ibid.). During sampling of soils using the methodology outlined in Example 3, above, root of target plants were removed and separated by plant species, each sample being labeled and preserved in FAA solution until being further processed.
Staining of the roots was achieved according to published procedures (see, Phillips J. M. and Hayman D. S., Trans. Brit. Mycological Soc., 55:158-160, 1970) except that cotton blue lactophenol was substituted with lactic acid glycerol with trypan blue since lactophenol is toxic. The procedure used for staining was as follows: • A) Remove roots from FAA Solutions. Cut into 1 cm lengths. Place in test tube, push roots to the bottom of the test tube. • B) Cover roots with 10% KOH (10 grams of reagent grade KOH in enough distilled water to 100 ml). Let stand overnight, about 10 hours. • C) Simmer at 90° C. for one hour in a water bath (container with water and test tubes with roots over a heat source). • D) Rinse in tap water. • E) Rinse five minutes in 0.1 N HCl (3.65 […] of HCl in 1000 ml total volume with distilled water). • F) Rinse in tap water. • G) Simmer at 90° C. one hour (in water bath) in Trypan blue Lactic Acid Glycerol (distilled water, 100 ml; lactic acid (reagent grade 85 to 88%) 100 ml; glycerin (reagent grade 85% also listed as glycerol), 200 ml; trypan blue, 0.1 grams (60% dye content). • H) Rinse in tap water. • I) Place in clear lactic acid glycerol (same formulation as above except without the Trypan blue) if destaining is necessary. Samples can be simmered at 90° C. (one hour in water bath) or left at room temperature for at least 72 hours or longer. • J) Mount on standard glass slide (2.5 cm by 7.6 cm) in lactic acid glycerol. Cover slip (2.3 cm by 4.8 cm) used.
An estimate of the degree of infection of western wheatgrass was made by making microscopic scans of each slide such that 40 root segments were evaluated. The evaluation was performed using the 20× objective, e.g., 200× total magnification—eyepieces were 10× multiplied by the objective magnification. […]

| Structure (SMILES) | AM Infection t = 0 days | AM Infection t = 47 days (second sampling) | AM Infection t = 97 days | root infection level compared with control, KCl and phosphite plots (second sampling, t = 47) |
| --- | --- | --- | --- | --- |
| OP(O)O [PO3, dipotassium phosphite] | 32Aa Per forty 1.1 mm root segments | 31Aab Per forty 1.1 mm root segments | 39ACc Per forty 1.1 mm root segments | – |
| O=P([O-])([O-])O.[K+].[K+] [PO4, dipotassium phosphate] | 31Aa Per forty 1.1 mm root segments | 38.7Bbc Per forty 1.1 mm root segments | 38ACc Per forty 1.1 mm root segments | significant increase |
